Measured values from US8048918B2, “Treatment of hyperproliferative diseases” (Vampex Limited, priority 2000, dated 2011).
Entries after “also recorded” stand apart in the source; their conditions may differ. Where no end group is shown, it is not given here.

Legend:
[1] = tested on: hyperproliferative psoriatic keratinocytes; assay: proliferation assay (Coulter cell counter) on hyperproliferative psoriatic keratinocytes; format: cell-based, human
Description: Biopsy samples are obtained from psoriatic patients. Skin from patients with chronic plaque psoriasis are obtained with informed consent. Ethical approval has been obtained previously from The South Sheffield Regional Ethics Committee. Biopsies are all be taken from the lower back in psoriasis patients aged 40 to 60.
Remove subcutaneous tissue and some of the dermis with scissors, dissect skin into 1×2 cm pieces with a scalpel. Rinse the tissue 2-5 times in PBSA. Float skin samples on 0.6% Trypsin in PBSA (pH 7.4) ON at 4° C. (or alternatively for 20-30 min at 37° C.)
The separation of the epidermis is carefully monitored. When the first detachment of the epidermis is visible at the cut edges of the skin sample place the pieces (dermis-side down) in 100 mm Petri dishes. Irrigate with 5 ml of complete culture medium (incl. serum). Peel off the epidermis with forceps and collect it in a 50 ml centrifuge tube containing 20 ml of complete culture medium (KGM). Separate the keratinocytes from the epidermal cells by gently pipetting and sieving through a nylon gauze of 100 μm mesh. Wash the isolated epidermal cells twice in KGM by centrifugation at 100 g for 10 min, and count the total number of cells.
Cells are seeded at 37° C. in KGM medium at a density of 2500 cells/cm^2 in a 25 cm^2 cell culture flask. The medium is replaced every 48 hours and cells are passaged when confluent.
Cell Seeding and Analysis: Purchased secondary cultures or primary cultures (from donor skin) are seeded at 3500 cells/cm^2 in K-SFM 25 cm^2 tissue culture flasks. The medium is changed (5 ml per flask) the day after seeding and every other day thereafter. At 70-80% confluence the cells are subcultured by seeding 3500 cells per well in 24 well cell culture plates, each well containing 500 μl of K-SFM. One well plate is seeded for each treatment. After allowing one day for settling the cells are switched to experimental medium (500 μl per well). Stock solutions of additions are as before. Experimental treatments are as follows:
The medium is replaced every other day. Cells are harvested by trypsinisation. 500 μl Trypsin/EDTA is added to each well to be harvested and then aspirated off. The well plates are incubated for 5-6 min at 37° C. 500 μl PBS is added to the wells and the cells are resuspended. The cell suspension is added to 20 ml Isoton solution in a Coulter counter “Accuvette” and the cells are counted. On each harvest, 3 wells of cells are counted for each treatment and 3 counts were made for each well.
Cell number is calculated as follows: Coulter Counter removes 500 μl of 20 ml sample ( 1/40). Multiply cell count by 40 to obtain cell number in cup, this equals the total number of cells in one well (approximately, as ˜10% taken out for viability test). […]

retinoic acid synthesis = assay: RA synthesis in normal human epidermal keratinocytes; format: cell-based; conditions: Carbenoxolone 6 μM, Disulfiram 15 μM or Citral 10 μM
Protocol: Protocols used are as described in as in Båvik et al., Experimental Cell research 1995:216, p. 358-362. Briefly, subcultures are grown to confluence in KGM. On day of confluence change to keratinocyte differentiation media (1.2 mM Ca^2+, KDM) with 2 μM holo-RBP+/−inhibitors ([…]; […]; 10 μM Citral; 0.2 mM 4-Methylpyrazole; 15 μM Disulfiram; 10 μM Citral; 2 mM 3-Mercaptopropionic acid; or drug vehicle alone). Cells are grown for 4 days, and cells are media are harvested.
The concentration of RA in cells and media is analysed directly by HPLC. Essentially as in “Characterisation of retinol metabolism in cultured human epidermal keratinocytes”, Randolph R. K. and Simon M., J. Biol. Chem. 268:9198-9205, 1993. The concentration of RA in cells is also analysed indirectly by Northern blot analysis of CRABPII mRNA expression in the keratinocytes, essentially as described in Elder et al. Retinoid Induction of CRABPII nRNA in Human Dermal Fibroblasts: Use as a Retinoid Bioassay, J. Investigative Dermatology 106:517-521, 1996.
The above two experiments are repeated, but with the use of normal human epithelial keratinocytes instead of psoriatic human epidermal keratinocytes.

retinol dehydrogenase = conditions: Boerman and Napoli, Biochemistry 34:7027-37, 1995; cited from earlier work
[2] = tested on: human dermal fibroblast cells; assay: proliferation assay of human dermal fibroblast cells; format: cell-based; conditions: P142 1 mg/ml, peptides 6 μM; 24 hours and 4 days after treatment; FIG. 9
Protocol: Fibroblast cell culture is performed essentially as described for culture of hyperproliferative psoriatic keratinocytes (Example 3), except that following irrigation with complete culture medium, the dermal portion is incubated with 1 mg/ml of collagenase (Sigma) in 20 ml DMEM in a 50 ml centrifuge tube for 16 hours at 37° C. Then 20 ml DMEM containing 5% foetal calf serum and 1% antibiotic/antimycotic solution (Gibco) is added and the cells seeded at 37° C. in DMEM medium+additions at a density of 2500 cells/cm^2 in a 25 cm^2 cell culture flask. Medium is replaced every 48 hours and cells passaged when confluent.
Fibroblast cell culture and experiments are performed essentially as described for culture of hyperproliferative psoriatic keratinocytes (above), except that following irrigation with complete culture medium, the dermal portion is processed further. Reference is made to fibroblast culture protocols set out above.
Proliferation of cells is assayed by direct cell counting essentially as for determination of proliferation in keratinocyte cell cultures. RDH, ADH, RalDH inhibitors are found to reduce proliferation.

Molecule	effect on retinol/retinoic acid-induced keratinocyte proliferation (cell numbers) ([1]; RA synthesis inhibitors (Disulfiram 15 μM, Citral 10 μM, Carbenoxolone 12 μM), 1.2 mM Ca2+, 2 μM ROL, FIG. 10)	retinoic acid synthesis (retinoic acid synthesis)	IC50 (retinol dehydrogenase)	fibroblast proliferation (cell numbers) [2]	effect on RBP-increased proliferation ([1]; peptides 6 μM, Ca2+ 1.2 mM, RBP 0.6 μM)
CC1(C)[C@@H](OC(=O)CCC(=O)O)CC[C@]2(C)[C@H]3C(=O)C=C4[C@@H]5C[C@@](C)(C(=O)O)CC[C@]5(C)CC[C@@]4(C)[C@]3(C)CC[C@@H]12 [Carbenoxolone]	particularly marked effect	inhibited	55 µM	–	–
GRVRLLNNWDVCA	–	–	–	greater reduction in proliferation	reversed; also recorded: reduces proliferation
CC(C)=CCCC(C)=CC=O [Citral, 3,7-dimethyl-2,6-octadienal]	–	inhibited	–	–	–
